Consider five compounds from article PMC7354229 (ACS infectious diseases, 2020).

Like-named read-outs stand apart in the source and are kept apart here.

Common to all, as to format: cell-based, Staphylococcus aureus
The subject of assay [1] is S. aureus JE2 transposon mutant SAUSA300_0647 (vraF). Put plainly: MIC ratio WT/mutant.
Assay [2] deals with S. aureus JE2 transposon mutant SAUSA300_1037 (pheS). Nature of the assay: MIC ratio WT/mutant.
Assay [3] deals with S. aureus JE2 transposon mutant SAUSA300_1255 (mprF). Put plainly: MIC ratio WT/mutant.
For assay [4], the system named is S. aureus JE2 transposon mutant SAUSA300_1465. Put plainly: MIC ratio WT/mutant.
Assay [5] has as its system S. aureus JE2 transposon mutant SAUSA300_1962. Nature of the assay: MIC ratio WT/mutant.
The test system of assay [6] is S. aureus JE2 transposon mutant SAUSA300_0186 (argC).
In assay [7] the test system is S. aureus JE2 transposon mutant SAUSA300_0646 (graS). Put plainly: MIC ratio WT/mutant.
The test system of assay [8] is S. aureus JE2 transposon mutant SAUSA300_0829 (lipA). Put plainly: MIC ratio WT/mutant.
Assay [9] deals with S. aureus JE2 transposon mutant SAUSA300_0988 (trkA). Put plainly: MIC ratio WT/mutant.
Assay [10] has as its system S. aureus JE2 transposon mutant SAUSA300_1036.
The subject of assay [11] is S. aureus JE2 transposon mutant SAUSA300_1336.
For assay [12], the system named is S. aureus JE2 transposon mutant SAUSA300_1503.
The test system of assay [13] is S. aureus JE2 transposon mutant SAUSA300_1867. Nature of the assay: MIC ratio WT/mutant.
Assay [14] concerns S. aureus JE2 transposon mutant SAUSA300_1967.
The test system of assay [15] is S. aureus JE2 transposon mutant SAUSA300_1898.
Assay [16] has as its system S. aureus JE2 transposon mutants. The following applies: peptide at 1.56 μM, propidium iodide.
The subject of another assay is S. aureus. Nature of the assay: Growth inhibition in 100% TSB.

For `NC[C@H]1O[C@H](O[C@H]2[C@H](O)[C@@H](O[C@H]3O[C@H](CO)[C@@H](O)[C@H](N)[C@H]3O)[C@H](N)C[C@@H]2N)[C@H](N)C[C@@H]1O` [Tobra, tobramycin], the “Fold decrease of MIC (MIC ratio WT / mutant)” value in assay [1] was determined as 2 fold; in [2] it was 4 fold; in assay [3], 4 fold; in assay [4] it was 4 fold; in assay [5], 2 fold.

As to `CN(C)c1cc(NC(=O)CNC(C)(C)C)c(O)c2c1C[C@H]1C[C@H]3[C@H](N(C)C)C(O)=C(C(N)=O)C(=O)[C@@]3(O)C(O)=C1C2=O` [Tige, tigecycline], the “Fold decrease of MIC (MIC ratio WT / mutant)” value in assay [6], in assay [7], in assay [1], in assay [8], in [9] and in assay [10] was 2 fold in each case. The “Fold decrease of MIC (MIC ratio WT / mutant)” value in assay [2] was 2–4 fold; in assay [3] it was 2 fold; in [11], 2 fold; in [4], 6 fold; in [12], 2 fold; in assay [5] it was 4 fold. The “Fold decrease of MIC (MIC ratio WT / mutant)” value in assay [13], in assay [14] and in [15] was 2 fold in each case.

`CC[C@H](C)[C@H](NC(=O)[C@H](CCCCN)NC(=O)[C@H](CCC(=O)O)NC(=O)[C@H](CCCCN)NC(=O)[C@H](CO)NC(=O)[C@H](CCCCN)NC(=O)[C@H](CCCNC(=N)N)NC(=O)[C@H](Cc1ccccc1)NC(=O)[C@H](Cc1ccccc1)NC(=O)[C@H](CC(=O)O)NC(=O)CNC(=O)[C@H](CC(C)C)NC(=O)[C@@H](N)CC(C)C)C(=O)NCC(=O)N[C@@H](CCCCN)C(=O)N[C@@H](CCC(=O)O)C(=O)N[C@@H](Cc1ccccc1)C(=O)N[C@@H](CCCCN)C(=O)N[C@@H](CCCNC(=N)N)C(=O)N[C@H](C(=O)N[C@H](C(=O)N[C@@H](CCC(N)=O)C(=O)N[C@@H](CCCNC(=N)N)C(=O)N[C@H](C(=O)N[C@@H](CCCCN)C(=O)N[C@@H](CC(=O)O)C(=O)N[C@@H](Cc1ccccc1)C(=O)N[C@@H](CC(C)C)C(=O)N[C@@H](CCCNC(=N)N)C(=O)N[C@@H](CC(N)=O)C(=O)N[C@@H](CC(C)C)C(=O)N[C@H](C(=O)N1CCC[C@H]1C(=O)N[C@@H](CCCNC(=N)N)C(=O)N[C@H](C(=O)N[C@@H](CCC(=O)O)C(=O)N[C@@H](CO)C(=O)O)[C@@H](C)O)C(C)C)[C@@H](C)CC)C(C)C)[C@@H](C)CC` [LL-37]: the “Membrane permeability of mutant relative to JE2” value is reported as “less permeable” in [16] (mutant SAUSA300_0646); “essentially no differences” in assay [16] (mutants SAUSA300_0186, 0829, 1089, 1097, 1220, 1228, 1515, 1865, 1867, 1962 and 1967); “slightly more permeable” in [16] (mutants SAUSA300_0645, 0647 and 1503); “clearly more permeable than JE2” in assay [16] (mutants SAUSA300_1036, 1037 and 1255). Besides, the “Inhibition of S. aureus growth” value in the assay with S. aureus is reported as “did not inhibit”.

Regarding `CN[C@H](CC(C)C)C(=O)N[C@H]1C(=O)N[C@@H](CC(N)=O)C(=O)N[C@H]2C(=O)N[C@H]3C(=O)N[C@H](C(=O)N[C@H](C(=O)O)c4cc(O)cc(O)c4-c4cc3ccc4O)[C@H](O)c3ccc(c(Cl)c3)Oc3cc2cc(c3O[C@@H]2O[C@H](CO)[C@@H](O)[C@H](O)[C@H]2O[C@H]2C[C@](C)(N)[C@H](O)[C@H](C)O2)Oc2ccc(cc2Cl)[C@H]1O` [Van, vancomycin], the “Fold decrease of MIC (MIC ratio WT / mutant)” value is 2–4 fold in [7]; 2–4 fold in assay [1]; 4 fold in assay [2]; 2 fold in assay [3]; 4 fold in assay [4]; 2 fold in assay [5]. Besides, the “Fold decrease of MIC (MIC ratio WT / mutant)” value in assay [13] is reported as 2 fold.

In the case of `CC(=O)NC[C@H]1CN(c2ccc(N3CCOCC3)c(F)c2)C(=O)O1` [Linez, linezolid], the “Fold decrease of MIC (MIC ratio WT / mutant)” value in assay [1] is 6 fold; in assay [2], 2 fold; in [4], 6 fold; in assay [12], 2 fold; in assay [5], 2–4 fold.
